Patent US10865222B2, “Neisseria gonorrhoeae therapeutic based on CMP-nonulosonate sugars” (priority 2014, dated 2020)

How the values were obtained:
[1] = molecular target: T1, Lst sialyltransferase from N. gonorrhoeae F62 (Neisseria gonorrhoeae, UniProt P72074); test: Lst sialyltransferase acceptor specificity with CMP-Neu5Ac and CMP-Leg5Ac7Ac donors (TLC); format: biochemical; settings: for removal of the nonulosonate from modified LacNAc acceptors by Lst over time: 2 h versus 20 h
T1 construct: made in house; host or cells: Escherichia coli
T1 sequence (P72074 whole entry): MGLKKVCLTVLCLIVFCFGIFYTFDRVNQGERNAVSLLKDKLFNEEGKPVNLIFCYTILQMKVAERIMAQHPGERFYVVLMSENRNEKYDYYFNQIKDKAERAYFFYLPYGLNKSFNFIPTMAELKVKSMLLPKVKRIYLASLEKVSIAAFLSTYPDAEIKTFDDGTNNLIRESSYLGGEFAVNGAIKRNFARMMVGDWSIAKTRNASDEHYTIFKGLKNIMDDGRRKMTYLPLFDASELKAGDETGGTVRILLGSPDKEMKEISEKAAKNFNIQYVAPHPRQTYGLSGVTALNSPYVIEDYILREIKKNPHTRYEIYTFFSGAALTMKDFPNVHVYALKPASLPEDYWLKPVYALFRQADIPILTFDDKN
Procedure: (§1) FIG. 11. N. gonorrhoeae Lst sialyltransferase efficiently legylates a LacNAc acceptor. The acceptor specificity of N. gonorrhoeae Lst sialyltransferase was assessed using CMP-Neu5Ac and CMP-Leg5Ac7Ac donors. The various acceptors tested were LacNAc or Galβ-1,4-GlcNAc-β-FCHASE, Lacto-N-biose or Galβ-1,3-GlcNAc-β-FCHASE, TAg or Galβ-1,3-GalNAc-α-FCHASE, and Pk or Galα-1,4-Galβ-1,4-Glc-β-FCHASE. Lst enzyme preparations (2.5 μg per assay) were incubated with 2.5 pmoles of each acceptor with either 3 mM CMP-Neu5Ac or 3 mM CMP-Leg5Ac7Ac for either 2 or 20 h as indicated. Reactions were then examined by TLC. Arrows indicate the general vicinity of FCHASE acceptors (top spots), whereas arrowheads indicate the general vicinity of modified FCHASE acceptors (bottom spots—enzyme product).
as §1, with “The” for “FIG. 11. N. gonorrhoeae Lst sialyltransferase efficiently legylates a LacNAc acceptor. The”, “product) (FIG. 11).” for “product).”
Lst sialyltransferase from N. gonorrhoeae F62 was recombinantly produced in Escherichia coli. Total membranes were isolated by ultracentrifugation at 100,000×g, resuspended in 0.2% Triton X-100, 50 mM Tris pH 7.5, 100 mM NaCl and incubated for 2 h at 4° C. […] N. gonorrhoeae Lst enzymatic assays were performed using 2.5 pmoles of 4 different FCHASE acceptors; LacNAc or Galβ-1,4-GlcNAc-β-FCHASE, Lacto-N-biose or Galβ-1,3-GlcNAc-β-FCHASE, TAg or Galβ-1,3-GalNAc-α-FCHASE, Pk or Galα-1,4-Galβ-1,4-Glc-β-FCHASE. CMP-Neu5Ac donor assays contained 50 mM Tris pH 7.5, whereas CMP-Leg5Ac7Ac donor assays contained 50 mM MES pH 6. All reactions contained 10 mM MnCl2, 3 mM CMP-sugar donor and 2.5 μg Lst enzyme. Reactions were incubated at 30° C. for either 2 h or 20 h as indicated. Upon completion of the reactions, stop solution was added (final concentration of 0.5% SDS, 5 mM EDTA, 25% acetonitrile) and an aliquot was run on TLC using EtOAc:MeOH:H2O:HOAc 4:2:1:0.1 as the mobile phase.

N. gonorrhoeae F62 ΔIgtD = test: Flow cytometry for factor H binding to bacteria; format: cell-based; set-up: key to fH binding: minimal: compared to unsialylated gonococci; settings: for fH binding facilitated by CMP-Neu5Ac: analogue added within 2 min of CMP-Neu5Ac 20 μg/ml
Procedure: FIG. 3. Effects of LOS modification with various nonulosonate analogues on fH binding to N. gonorrhoeae. N. gonorrhoeae F62 ΔIgtD was grown in media alone, or media supplemented with 20 μg/ml (˜30 μM) of each of the indicated CMP-nonulosonates. Binding of bacteria to fH (10 μg/ml) was measured by flow cytometry using polyclonal goat anti-human fH. The control indicates reaction mixtures that lacked fH. Y-axis, median fluorescence of fH binding. The mean (SD) of 2 independent repeats is shown.
FIG. 7. […] A. N. gonorrhoeae F62 ΔIgtD was incubated in media containing CMP-Neu5Ac (20 μg/ml), followed […] by the addition of either CMP-Neu5Ac9Az or CMP-Leg5Ac7Ac (20, 2 or 0.2 μg/ml). Bacteria were grown for 2 h and fH binding detected by FACS using polyclonal goat anti-human fH. The Y-axis represents median fluorescence. The mean (SEM) of two independent observations is shown. B. Development of serum resistance lags behind fH binding when measured as a function of time of exposure of bacteria to CMP-Neu5Ac. CMP-Neu5Ac (20 μg/ml) was added to media containing F62 ΔIgtD and bacteria were taken at the time points indicated on the X-axis and assayed for fH binding by FACS with anti-fH mAb 90× (left Y-axis; median fluorescence (SEM)), or tested for its ability to resist killing by 10% NHS (right Y-axis; percent survival). The data represent 2-3 independent experiments. C. Representative histograms of a fH binding FACS experiment.
The addition of a terminal Neu5Ac residue to LNT-expressing LOS enhances binding of the alternative pathway inhibitor, factor H, which contributes to the ability of sialylated gonococci to resist killing by complement (7). fH binding to N. gonorrhoeae F62 ΔIgtD grown in the presence of each of the CMP-nonulosonates (20 μg/ml or 30 μM) was examined (FIG. 3). […] Reducing the CMP-nonulosonate concentrations in growth media to 2 μg/ml (3 μM) yielded similar fH binding results (FIG. 9B). Further, modification of LOS with Neu5Ac or Neu5Gc yielded similar amounts of fH binding over CMP-sialic acid concentrations ranging from 0.5 to 4 μg/ml, with near maximal fH binding observed even at the lowest concentration tested (FIG. 9C).
fH binding to bacteria was performed using flow cytometry as described previously (14). Briefly, bacteria (F62 ΔIgtD) were harvested from chocolate agar plates and grown in liquid media that contained the specified concentration of the CMP-nonulosonate as described above. Bacteria were then washed with Hanks Balanced Salt Solution (HBSS) containing 1 mM Ca^2+ and 1 mM Mg^2+ (HBSS^++) and incubated with fH purified from human plasma (Complement Technology, Inc.; concentration specified for each experiment). Bound fH was detected using either anti-fH mAb (Quidel, catalog no. A254 (mAb 90×)) or goat anti-human fH, followed by FITC conjugated anti-mouse IgG or anti-goat IgG, respectively (Sigma); both Abs had similar performance characteristics. All reaction mixtures were carried out in HBSS^++/1% BSA in a final volume of 50 μl. Flow cytometry was performed using a FACSCalibur instrument (Becton Dickinson) and data were analyzed using FlowJo (version 7.2.5; Tree Star, Inc.).

[2] = CMP-nonulosonate 20 μg/ml or 30 μM, vs unsialylated F62 ΔIgtD

| Compound | removal of the nonulosonate from modified LacNAc acceptors by Lst over time [1] | fH binding (N. gonorrhoeae F62 ΔIgtD; [2]) | fH binding (N. gonorrhoeae F62 ΔIgtD; summary Table 1) | fH binding facilitated by CMP-Neu5Ac (N. gonorrhoeae F62 ΔIgtD) | further results |
| --- | --- | --- | --- | --- | --- |
| CC(=O)NC1C(O)CC(OP(=O)(O)OCC2OC(n3ccc(N)nc3=O)C(O)C2O)(C(=O)O)OC1C(O)C(O)CO [CMP-Neu5Ac, CMP-5-acetamido-3,5-dideoxy-D-glycero-D-galacto-nonulosonic acid, reference compound] | can remove Neu5Ac from modified LacNAc acceptors over time | Maximal | high | – | utilization of Lacto-N-biose, TAg and Pk acceptors ([1]; 3 mM CMP-sugar donor, 2 or 20 h): all but TAg could be efficiently utilized; fH binding as function of time of exposure (N. gonorrhoeae F62 ΔIgtD; CMP-Neu5Ac 20 μg/ml, 2 min): barely any fH binding above control levels; fH binding, % of maximal binding (N. gonorrhoeae F62 ΔIgtD; CMP-Neu5Ac 20 μg/ml, by 16 min): ~70%; fH binding as function of time of exposure (N. gonorrhoeae F62 ΔIgtD; CMP-Neu5Ac 20 μg/ml, by 32 min): near maximal binding; fH binding (N. gonorrhoeae F62 ΔIgtD; CMP-sialic acid 0.5 to 4 μg/ml, lowest concentration tested): near maximal |
| COC(CO)C(O)C1OC(OP(=O)(O)OCC2OC(n3ccc(N)nc3=O)C(O)C2O)(C(=O)O)CC(O)C1NC(=O)CO [CMP-Neu5Gc8Me, CMP-5-hydroxyacetamido-8-O-methyl-3,5-dideoxy-D-glycero-D-galacto-nonulosonic acid] | – | – | minimal | – | – |
| 5,7-diacetamido-3,5,7,9-tetradeoxy-D-glycero-D-galacto-nonulosonic acid [CMP-Leg5Ac7Ac] | this was not observed | – | minimal | did not interfere with fH binding | product conversion of LacNAc acceptor ([1]; 3 mM CMP-sugar donor, 2.5 μg Lst): ~100% |
| CC(=O)N[C@H]1[C@H]([C@H](O)[C@H](O)COC(C)=O)OC(OP(=O)(O)OC[C@H]2O[C@@H](n3ccc(N)nc3=O)[C@H](O)[C@@H]2O)(C(=O)O)C[C@@H]1O (stereo partly drawn) [CMP-Neu5Ac9Ac, CMP-5-acetamido-9-O-acetyl-3,5-dideoxy-D-glycero-D-galacto-nonulosonic acid] | – | intermediate | intermediate | – | – |
| CC(=O)N[C@H]1[C@H]([C@H](O)[C@H](O)CN=[N+]=[N-])OC(OP(=O)(O)OC[C@H]2O[C@@H](n3ccc(N)nc3=O)[C@H](O)[C@@H]2O)(C(=O)O)C[C@@H]1O (stereo partly drawn) [CMP-Neu5Ac9Az, CMP-5-acetamido-9-azido-3,5,9-trideoxy-D-glycero-D-galacto-nonulosonic acid] | – | – | minimal^A | did not interfere with fH binding | – |
